Molecular target: Integrin alpha-IIb/beta-3 (Canis lupus familiaris)
Assay: Inhibition of 125I-fibrinogen binding to alpha IIb beta-3 integrin as inhibition of activated platelets

Row | Structure (SMILES) | IC50 [nM]
1 | CN1C(=O)[C@@H](CCCCNC(=O)c2ccc(NNC(=O)OC(C)(C)C)nc2)NC(=O)c2cccc(c2)CNC(=O)[C@H](CC(=O)O)NC(=O)CNC(=O)[C@@H]1CCCN=C(N)N | 16
2 | CC(C)[C@H]1NC(=O)c2cc(cc(NC(=O)CCCCCNC(=O)c3ccc(NN)nc3)c2)CNC(=O)[C@H](CC(=O)O)NC(=O)CNC(=O)[C@H](CCCN=C(N)N)N(C)C1=O | 8
3 | CC(C)[C@H]1NC(=O)c2cccc(c2)CNC(=O)[C@H](CC(=O)O)NC(=O)CNC(=O)[C@H](CCCN=C(N)N)N(C)C1=O | 6
4 | CCOC(C)SCC(=O)NCC(CCC(=O)NCCCCCC(=O)Nc1cc2cc(c1)C(=O)N[C@H](C(C)C)C(=O)N(C)[C@@H](CCCN=C(N)N)C(=O)NCC(=O)N[C@@H](CC(=O)O)C(=O)NC2)NC(=O)CSC(C)OCC (stereo partly drawn) | 13
5 | CC(C)[C@H]1NC(=O)c2cc(cc(NC(=O)CCCCCNC(=O)c3ccc(NNC(=O)OC(C)(C)C)nc3)c2)CNC(=O)[C@H](CC(=O)O)NC(=O)CNC(=O)[C@H](CCCN=C(N)N)N(C)C1=O | 9
6 | CCOC(C)SCC(=O)NCC(CCC(=O)NCCCC[C@H]1NC(=O)c2cccc(c2)CNC(=O)[C@H](CC(=O)O)NC(=O)CNC(=O)[C@H](CCCN=C(N)N)N(C)C1=O)NC(=O)CSC(C)OCC (stereo partly drawn) | 11
7 | CC(C)[C@H]1NC(=O)c2cc(cc(NC(=O)CCCCCNC(=O)c3ccc(CN(CCSC(c4ccccc4)(c4ccccc4)c4ccccc4)CC(=O)NCCSC(c4ccccc4)(c4ccccc4)c4ccccc4)cc3)c2)CNC(=O)[C@H](CC(=O)O)NC(=O)CNC(=O)[C@H](CCCN=C(N)N)N(C)C1=O | > 1000
8 | CC(C)[C@H]1NC(=O)c2cc(cc(NC(=O)CCCCCN)c2)CNC(=O)[C@H](CC(=O)O)NC(=O)CNC(=O)[C@H](CCCN=C(N)N)N(C)C1=O | 5
